Experimental data published in publication PMC6522524 (Nature Communications, 2019).
“And” between values parts separate entries of the source, which are not always exact repeats. Equal values may be shown once. Read-outs that look alike come from different tables or passages of the source.

Assays:
[1] = biological target: T1, Cp149 (truncated HBV core protein) (Hepatitis B virus genotype D subtype ayw, UniProt P03146); assay: biochemical; conditions: for Relative intensity, anti core-native gel, individual samples: Sample1-2; for HBV capsid assembly inhibitory activity in vitro (Supplementary Fig. 8): Cp149
T1 construct: Cp149 (amino acids 1–149) is a truncated form of the HBV core protein; made in house; host or cells: Escherichia coli

[2] = biological target: HBV core protein (pCDNA3-Core, Y118 wild-type) in Huh-7 cells (Hepatitis B virus genotype C, UniProt P0C6H6); assay: cell-based; assay type: cell-based; conditions: for activity at 0.1 µM: Huh-7, Y118, 0.1 μM; for activity at 0.5 µM: Huh-7, Y118, 0.5 μM; for activity at 1 µM: Huh-7, Y118, 1 μM; for activity at 5 µM: Huh-7, Y118, 5 μM; for activity at 10 µM: Huh-7, Y118, 10 μM; for HBV capsid assembly inhibitory activity in vivo (Fig. 3d): Huh-7, pCDNA3-Core
[3] = test system: total HBV core protein in Huh-7 cells; assay type: cell-based, Hepatitis B virus; conditions: for total core protein: treatment time increased; for Relative Core mRNA level(Folds), individual samples: Sample1-3
Procedure: the indicated times. The cells were lysed and assembled HBV core particles were isolated by sucrose step-gradient ultracentrifugation, resolved on 1 % agarose gels, and subjected to immunoblot analysis with anti-HBV core antibody. Total intracellular HBV core protein was also determined by immunoblot analysis in the cell lysates. Core mRNA levels were measured by quantitative RT-PCR. The data

[4] = Sample1-3, read-out: Relative intensity (Folds), intracellular capsid, individual samples
[5] = read-out: Relative intensity (Folds), intracellular capsid, AVERAGE
[6] = Y118, 0.1 μM, Sample1-3, 0.1 µM
[7] = Y118, 0.5 μM, Sample1-3, 0.5 µM

T1 sequence (P03146 1-149): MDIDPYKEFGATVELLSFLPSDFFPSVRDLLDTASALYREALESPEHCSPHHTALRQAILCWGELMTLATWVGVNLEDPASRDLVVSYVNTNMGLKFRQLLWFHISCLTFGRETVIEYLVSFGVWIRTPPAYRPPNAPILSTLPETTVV
Sequence of HBV core protein (pCDNA3-Core, Y118 wild-type) in Huh-7 cells (P0C6H6 whole entry): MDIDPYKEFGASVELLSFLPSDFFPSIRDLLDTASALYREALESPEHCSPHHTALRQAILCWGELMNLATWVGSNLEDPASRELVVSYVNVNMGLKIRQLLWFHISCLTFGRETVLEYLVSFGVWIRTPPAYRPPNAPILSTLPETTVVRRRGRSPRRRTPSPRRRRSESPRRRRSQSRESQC

## CC1(CC(=O)O)CC(C2CCCCC2)=NO1 (racemic) [(RS)-2-(3-cyclohexyl-5-methyl-4,5-dihydroisoxazol-5-yl)acetic Acid]
[1]; Drug Concentration 0.1 μM
  Relative intensity, anti core-native gel, AVERAGE: 0.9301
  Relative intensity, anti core-native gel, individual samples: 1.019 and 0.8411
[1]; Drug Concentration 0.2 μM
  Relative intensity, anti core-native gel, AVERAGE: 1.003
  Relative intensity, anti core-native gel, individual samples: 1.033 and 0.9731
[1]; Drug Concentration 0.5 μM
  Relative intensity, anti core-native gel, AVERAGE: 0.9877
  Relative intensity, anti core-native gel, individual samples: 0.9703 and 1.005
[1]; Drug Concentration 1 μM
  Relative intensity, anti core-native gel, AVERAGE: 0.9712
  Relative intensity, anti core-native gel, individual samples: 1.074 and 0.8679
[1]; Drug Concentration 2 μM
  Relative intensity, anti core-native gel, AVERAGE: 0.9867
  Relative intensity, anti core-native gel, individual samples: 1.072 and 0.9014
[1]; Drug Concentration 5 μM
  Relative intensity, anti core-native gel, AVERAGE: 0.9809
  Relative intensity, anti core-native gel, individual samples: 1.098 and 0.8634
[1]; Drug Concentration 10 μM
  Relative intensity, anti core-native gel, AVERAGE: 1.051
  Relative intensity, anti core-native gel, individual samples: 1.175 and 0.9277

## Cc1cc(C2CCCCC2)[nH]c(=O)c1 [Compound 2, 6-Cyclohexyl-4-methyl pyridin-2(1H)-one]
[1]
  HBV capsid assembly inhibitory activity in vitro (Supplementary Fig. 8): blocked its HBV capsid assembly inhibitory activity
[1]; Drug Concentration 0.1 μM
  Relative intensity, anti core-native gel, AVERAGE: 0.9832
  Relative intensity, anti core-native gel, individual samples: 0.9055 and 1.061
[1]; Drug Concentration 0.2 μM
  Relative intensity, anti core-native gel, AVERAGE: 1.01
  Relative intensity, anti core-native gel, individual samples: 0.8978 and 1.1231
[1]; Drug Concentration 0.5 μM
  Relative intensity, anti core-native gel, AVERAGE: 0.9545
  Relative intensity, anti core-native gel, individual samples: 0.9595 and 0.9494
[1]; Drug Concentration 1 μM
  Relative intensity, anti core-native gel, AVERAGE: 0.9058
  Relative intensity, anti core-native gel, individual samples: 0.865 and 0.9466
[1]; Drug Concentration 2 μM
  Relative intensity, anti core-native gel, AVERAGE: 0.9815
  Relative intensity, anti core-native gel, individual samples: 0.9391 and 1.024
[1]; Drug Concentration 5 μM
  Relative intensity, anti core-native gel, AVERAGE: 0.9702
  Relative intensity, anti core-native gel, individual samples: 0.8581 and 1.082
[1]; Drug Concentration 10 μM
  Relative intensity, anti core-native gel, AVERAGE: 0.8707
  Relative intensity, anti core-native gel, individual samples: 0.8904 and 0.851
[2]; [4]
  activity at 0.1 µM: 94%
  activity at 0.5 µM: 96.4%
  activity at 1 µM: 90.2%
  activity at 5 µM: 85.6%
  activity at 10 µM: 87.2%
[2]; [5]
  activity at 0.1 µM: 96.2%
  activity at 0.5 µM: 98.6%
  activity at 1 µM: 101%
  activity at 5 µM: 95.8%
  activity at 10 µM: 99.5%
[2]
  HBV capsid assembly inhibitory activity in vivo (Fig. 3d): blocked its HBV capsid assembly inhibitory activity
[2]; [6]
  Relative intensity (Folds), intracellular capsid, individual samples: 1.008 Folds and 0.9391 Folds
[2]; [7]
  Relative intensity (Folds), intracellular capsid, individual samples: 1.032 Folds and 0.9631 Folds
[2]; Y118, 1 μM, Sample1-3, 1 µM
  Relative intensity (Folds), intracellular capsid, individual samples: 1.06 Folds and 1.081 Folds
[2]; Y118, 5 μM, Sample1-3, 5 µM
  Relative intensity (Folds), intracellular capsid, individual samples: 1.004 Folds and 1.015 Folds
[2]; Y118, 10 μM, Sample1-3, 10 µM
  Relative intensity (Folds), intracellular capsid, individual samples: 1.04 Folds and 1.071 Folds

## Cc1cc(C2CCCCC2)oc(=O)c1 [Compound 3, 6-Cyclohexyl-4-methyl-2–pyrone]
[1]
  HBV capsid assembly inhibitory activity in vitro (Supplementary Fig. 8): blocked its HBV capsid assembly inhibitory activity
[1]; Drug Concentration 0.1 μM
  Relative intensity, anti core-native gel, AVERAGE: 0.9537
[1]; Drug Concentration 0.1 μM, listed as 6-Cycloxexyl-4-methyl-2-pyrone
  Relative intensity, anti core-native gel, individual samples: 0.8748 and 1.033
[1]; Drug Concentration 0.2 μM
  Relative intensity, anti core-native gel, AVERAGE: 0.9345
[1]; Drug Concentration 0.2 μM, listed as 6-Cycloxexyl-4-methyl-2-pyrone
  Relative intensity, anti core-native gel, individual samples: 0.9048 and 0.9643
[1]; Drug Concentration 0.5 μM
  Relative intensity, anti core-native gel, AVERAGE: 0.8949
[1]; Drug Concentration 0.5 μM, listed as 6-Cycloxexyl-4-methyl-2-pyrone
  Relative intensity, anti core-native gel, individual samples: 0.8127 and 0.9771
[1]; Drug Concentration 1 μM
  Relative intensity, anti core-native gel, AVERAGE: 0.9182
[1]; Drug Concentration 1 μM, listed as 6-Cycloxexyl-4-methyl-2-pyrone
  Relative intensity, anti core-native gel, individual samples: 0.8468 and 0.9896
[1]; Drug Concentration 2 μM
  Relative intensity, anti core-native gel, AVERAGE: 0.8055
[1]; Drug Concentration 2 μM, listed as 6-Cycloxexyl-4-methyl-2-pyrone
  Relative intensity, anti core-native gel, individual samples: 0.798 and 0.8131
[1]; Drug Concentration 5 μM
  Relative intensity, anti core-native gel, AVERAGE: 0.9044
[1]; Drug Concentration 5 μM, listed as 6-Cycloxexyl-4-methyl-2-pyrone
  Relative intensity, anti core-native gel, individual samples: 0.8531 and 0.9558
[1]; Drug Concentration 10 μM
  Relative intensity, anti core-native gel, AVERAGE: 1.014
[1]; Drug Concentration 10 μM, listed as 6-Cycloxexyl-4-methyl-2-pyrone
  Relative intensity, anti core-native gel, individual samples: 0.9919 and 1.036
[2]; [4]
  activity at 0.1 µM: 109%
  activity at 1 µM: 103%
  activity at 5 µM: 110%
[2]; [5]
  activity at 0.1 µM: 119%
  activity at 0.5 µM: 113%
  activity at 1 µM: 106%
  activity at 5 µM: 115%
  activity at 10 µM: 115%
[2]
  HBV capsid assembly inhibitory activity in vivo (Fig. 3d): blocked its HBV capsid assembly inhibitory activity
[2]; [6]
  Relative intensity (Folds), intracellular capsid, individual samples: 1.2405 Folds and 1.2516 Folds
[2]; [7]
  Relative intensity (Folds), intracellular capsid, individual samples: 0.9808 Folds and 1.196 Folds and 1.214 Folds
[2]; Y118, 1 μM, Sample1-3, 1 µM
  Relative intensity (Folds), intracellular capsid, individual samples: 1.107 Folds and 1.042 Folds
[2]; Y118, 5 μM, Sample1-3, 5 µM
  Relative intensity (Folds), intracellular capsid, individual samples: 1.192 Folds and 1.143 Folds
[2]; Y118, 10 μM, Sample1-3, 10 µM
  Relative intensity (Folds), intracellular capsid, individual samples: 0.9807 Folds and 1.199 Folds and 1.28 Folds

## Bay41–4109
[3]
  total core protein: decreased

## GLS-4
[1]
  Relative intensity (Folds), in vitro core assembly, individual samples: 1.0339 Folds and 1.019 Folds and 0.9819 Folds and 1.079 Folds and 1.058 Folds and 1.102 Folds and 0.3491 Folds and 0.342 Folds and 0.3462 Folds and 0.1267 Folds and 0.1171 Folds and 0.123 Folds and 0.01326 Folds and 0.01176 Folds and 0.01165 Folds and 0 Folds (6×)
[3]; 1.5day, 0.1 μM
  Relative Core mRNA level(Folds), AVERAGE: 0.9973 Folds
  Relative Core mRNA level(Folds), individual samples: 1.007 Folds and 1.003 Folds and 0.9824 Folds
[3]; 1.5day, 0.5 μM
  Relative Core mRNA level(Folds), AVERAGE: 1.0017 Folds
  Relative Core mRNA level(Folds), individual samples: 0.9742 Folds and 0.987 Folds and 1.044 Folds
[3]; 1.5day, 1 μM
  Relative Core mRNA level(Folds), AVERAGE: 0.9997 Folds
  Relative Core mRNA level(Folds), individual samples: 1.008 Folds and 0.9861 Folds and 1.005 Folds
[3]; 1.5day, 5 μM
  Relative Core mRNA level(Folds), AVERAGE: 1.008 Folds
  Relative Core mRNA level(Folds), individual samples: 1.002 Folds and 0.9963 Folds and 1.025 Folds
[3]; 1.5day, 10 μM
  Relative Core mRNA level(Folds), AVERAGE: 0.9997 Folds
  Relative Core mRNA level(Folds), individual samples: 0.9972 Folds and 0.9916 Folds and 1.01 Folds
[3]; 2.5day, 0.1 μM
  Relative Core mRNA level(Folds), AVERAGE: 0.9923 Folds
  Relative Core mRNA level(Folds), individual samples: 1.007 Folds and 0.9944 Folds and 0.976 Folds
[3]; 2.5day, 0.5 μM
  Relative Core mRNA level(Folds), AVERAGE: 0.9898 Folds
  Relative Core mRNA level(Folds), individual samples: 1 Folds and 0.9926 Folds and 0.9769 Folds
[3]; 2.5day, 1 μM
  Relative Core mRNA level(Folds), AVERAGE: 0.9998 Folds
  Relative Core mRNA level(Folds), individual samples: 1.0179 Folds and 1.005 Folds and 0.9769 Folds
[3]; 2.5day, 5 μM
  Relative Core mRNA level(Folds), AVERAGE: 0.9873 Folds
  Relative Core mRNA level(Folds), individual samples: 0.9861 Folds and 0.9889 Folds and 0.987 Folds
[3]; 2.5day, 10 μM
  Relative Core mRNA level(Folds), AVERAGE: 1.003 Folds
  Relative Core mRNA level(Folds), individual samples: 1.007 Folds and 1.001 Folds
[3]; 4.5day, 0.1 μM
  Relative Core mRNA level(Folds), AVERAGE: 0.9929 Folds
  Relative Core mRNA level(Folds), individual samples: 1.007 Folds and 0.9944 Folds and 0.9778 Folds
[3]; 4.5day, 0.5 μM
  Relative Core mRNA level(Folds), AVERAGE: 0.9886 Folds
  Relative Core mRNA level(Folds), individual samples: 1 Folds and 0.9889 Folds and 0.9769 Folds
[3]; 4.5day, 1 μM
  Relative Core mRNA level(Folds), AVERAGE: 0.9986 Folds
  Relative Core mRNA level(Folds), individual samples: 1.0179 Folds and 1.001 Folds and 0.9769 Folds
[3]; 4.5day, 5 μM
  Relative Core mRNA level(Folds), AVERAGE: 0.9904 Folds
  Relative Core mRNA level(Folds), individual samples: 0.9861 Folds and 0.9981 Folds and 0.987 Folds
[3]; 4.5day, 10 μM
  Relative Core mRNA level(Folds), AVERAGE: 0.9982 Folds
  Relative Core mRNA level(Folds), individual samples: 1.007 Folds and 0.9916 Folds and 0.9963 Folds
[3]
  total core protein: decreased
